Measured values as given in article PMC11730591 (Scientific Reports, 2025).
Entries after “also recorded” stand apart in the source; their conditions may differ.

How the values were obtained:
[1] = target: T1, α-glucosidase (Saccharomyces cerevisiae, UniProt P53341); assay: In vitro α-glucosidase inhibition assay; assay type: biochemical; settings: for α-Glucosidase inhibitory activity described in words: SAR discussion
[2] = target: T1, α-glucosidase; assay: Enzyme kinetic studies; assay type: biochemical

T1 sequence (P53341 whole entry): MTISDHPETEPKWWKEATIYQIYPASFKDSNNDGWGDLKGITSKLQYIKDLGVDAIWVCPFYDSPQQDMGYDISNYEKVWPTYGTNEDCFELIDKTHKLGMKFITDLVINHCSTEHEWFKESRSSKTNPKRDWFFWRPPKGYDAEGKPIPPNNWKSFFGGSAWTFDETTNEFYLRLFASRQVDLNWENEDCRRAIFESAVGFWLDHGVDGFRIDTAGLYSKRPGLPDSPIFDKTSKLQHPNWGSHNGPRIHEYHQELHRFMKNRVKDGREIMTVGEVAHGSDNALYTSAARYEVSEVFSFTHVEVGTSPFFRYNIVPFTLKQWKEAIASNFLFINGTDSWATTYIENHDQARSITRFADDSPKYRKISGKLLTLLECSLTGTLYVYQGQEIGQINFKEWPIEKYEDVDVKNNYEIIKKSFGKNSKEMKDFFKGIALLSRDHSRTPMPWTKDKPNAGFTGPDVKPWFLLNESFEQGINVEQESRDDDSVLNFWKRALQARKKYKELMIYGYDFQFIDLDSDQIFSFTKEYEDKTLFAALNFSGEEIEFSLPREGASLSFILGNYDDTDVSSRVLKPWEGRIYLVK

| SMILES | α-Glucosidase inhibitory activity described in words [1] | Ki [2] [µM] | Type of inhibition (Lineweaver-Burk plot) ([2]; Km increased, Vmax unchanged with increasing inhibitor concentration) | Fold improvement in activity compared to acarbose ([1]; versus acarbose as positive control) [fold] |
| --- | --- | --- | --- | --- |
| Cc1ccccc1NC(=O)CN1CCN(c2nc3ccccc3cc2/C=N/NC(N)=S)CC1 [Compound 7h, (E)-2-(4-(3-((2-carbamothioylhydrazono)methyl)quinolin-2-yl)piperazin-1-yl)-N-(o-tolyl)acetamide] | diminished activity | – | – | – |
| COc1ccc(OC)c(NC(=O)CN2CCN(c3nc4ccccc4cc3/C=N/NC(N)=S)CC2)c1 [Compound 7j, (E)-2-(4-(3-((2-carbamothioylhydrazono)methyl)quinolin-2-yl)piperazin-1-yl)-N-(2,5-dimethoxyphenyl)acetamide] | – | 32 | competitive inhibitor; also recorded: competitive inhibition | 15 |
| COc1ccc(CNC(=O)CN2CCN(c3nc4ccccc4cc3/C=N/NC(N)=S)CC2)cc1 [Compound 7n, (E)-2-(4-(3-((2-carbamothioylhydrazono)methyl)quinolin-2-yl)piperazin-1-yl)-N-(4-methoxybenzyl)acetamide] | poor activity | – | – | – |
